Earlier results, collected in patent publication US20050187172A1, “Combination of a Cox-2 inhibitor and a DNA topoisomerase I inhibitor for treatment of neoplasia” (priority 2003, published 2005).
Counter-ions that a name gives are not always drawn. Like-named read-outs stand apart in the source and are kept apart here.

Key:
[1] = for Toxicity (reported toxic effects): Table 3, Toxicity column
[2] = mice, single IV infusion
[3] = not given; remark: listed apart in the source
[4] = Grade 2 or higher toxic effects
[5] = dose limiting hematological toxicity

CC[C@@]1(O)C(=O)OCc2c1cc1n(c2=O)Cc2cc3c(N)cccc3nc2-1 [9-aminocamptothecin, 1H-Pyrano[3′,4′:6,7]indolizino[1,2-b]quinoline-3,14(4H,12H)-dione, 10-amino-4-ethyl-4-hydroxy-, (S)-]
Dose limiting toxicity (DLT) ([1]; in vivo): neutropenia.
Maximum tolerated dose ([1]; in vivo): 45 mug/square mug/square metre/hr

CC[C@@]1(O)C(=O)OCc2c1cc1n(c2=O)Cc2c-1nc1cc3c(cc1c2CN1CCN(C)CC1)OCCO3 [GG211]
Dose limiting toxicity (DLT) ([1]; in vivo): Hematologic toxicity

CCc1c2c(nc3ccc(OC(=O)N4CCC(N5CCCCC5)CC4)cc13)-c1cc3c(c(=O)n1C2)COC(=O)[C@]3(O)CC [Irinotecan hydrochloride, (4S)-4,11-diethyl-4-hydroxy-9-((4-piperidinopiperidino)carbonyloxy)-1H-pyrano(3′,4′:6,7)indolizino(1,2-b)quinoline-3,14(4H,12H)dione hydrochloride.]
Lethality in mice: Lethality in mice: 111 mg/kg

CCc1c2c(nc3ccc(OC(=O)N4CCC(N5CCCCC5)CC4)cc13)-c1cc3c(c(=O)n1C2)COC(=O)[C@]3(O)CC [Irinotecan]
Toxicity (reported toxic effects) [1]: Diarrhea and myelosup-

O=C1c2c(c3c4ccc(O)cc4n([C@@H]4O[C@H](CO)[C@@H](O)[C@H](O)[C@H]4O)c3c3[nH]c4cc(O)ccc4c23)C(=O)N1NC(CO)CO [J 107088, 5H-Indolo[2,3-a]pyrrolo[3,4-c]carbazole-5,7(6H)-dione, 12-β-D-glucopyranosyl-12,13-dihydro-2,10-dihydroxy-6-[[2-hydroxy-1-(hydroxymethyl)ethyl]amino]-]
Maximum tolerated dose ([1]; in vivo): dose: 7.5 mg/m2

CC[C@@]1(O)C(=O)OCc2c1cc1n(c2=O)Cc2cc3c(CN(C)C)c(O)ccc3nc2-1 [Topotecan hydrochloride, (S)-10-((dimethylamino)methyl)-4-ethyl-4,9-dihydroxy-1H-pyrano (3′,4′:6,7)indolizino(1,2-B)quinoline-3,14-(4H,12H)-dione monohydrochloride]
Dose limiting toxicity (DLT) ([1]; in vivo): DLT: Bone marrow sup-
LD10 [2]: pression. LD10: mice 75 mg/m^2

CC[C@@]1(O)C(=O)OCc2c1cc1n(c2=O)Cc2cc3c(CN(C)C)c(O)ccc3nc2-1 [Topotecan, 1H-Pyrano[3′,4′:6,7]indolizino[1,2-b]quinoline-3,14(4,H,12H)-dione, 10-[(dimethylamino)methyl]-4-ethyl-4,9-dihydroxy-, (S)-]
Dose limiting toxicity (DLT) ([1]; in vivo): Myelosup-pression dose-
Maximally tolerated dose ([1]; × 5 d every 3 to 4 wk): dose: 1.5 mg/m^2 × 5 d

CN(C)CCNC(=O)c1cccc2cc3ccccc3nc12.Cl.Cl [XR-5000, 4-Acridinecarboxamide, N-[2-(dimethylamino)ethyl]-, dihydrochloride]
Toxicity (reported toxic effects) [1]: infusion-related arm pain

CC[C@@]1(O)C(=O)OCc2c1cc1n(c2=O)Cc2cc3c([N+](=O)[O-])cccc3nc2-1 [rubitecan, 1H-Pyrano[3′,4′:6,7]indolizino[1,2-b]quinoline-3,14(4H,12H)-dione, -4-ethyl-4-hydroxy-10-nitro-, (S)-]
chemical cystitis [3, 4]: cystitis (25%),
diarrhea [3, 4]: diarrhea (32%), chemical
neutropenic sepsis [3, 4]: (21%), and weight loss
weight loss [3, 4]: (18%).
grade 4 anemia, share of patients [3, 5]: grade 4 anemia in 29%
thrombocytopenia (grade 4), share of patients [3, 5]: 18%. Grade 2 or higher
Maximum tolerated dose ([1]; over five consecutive days repeated every week): dose: 1.5 mg/m2/day
